From ChEMBL document CHEMBL3112450, “Synthesis and in vitro antitumor evaluation of primary amine substituted quinazoline linked benzimidazole” (Bioorg Med Chem Lett, 2014)

Experiments:
Type in all cases: functional
SNB-19 = test: Cytotoxicity against human SNB19 cells assessed as growth inhibition at 10 uM after 48 hrs by SRB assay; conditions: SNB-19, 48 h, read-out: GI
[1] = Cytotoxicity against human OVCAR5 cells assessed as growth inhibition at 10 uM after 48 hrs by SRB assay; conditions: OVCAR-5, 48 h, read-out: GI
SF-295 = test: Cytotoxicity against human SF295 cells assessed as growth inhibition at 10 uM after 48 hrs by SRB assay; conditions: SF-295, 48 h, read-out: GI
M14 = test: Cytotoxicity against human M14 cells assessed as growth inhibition at 10 uM after 48 hrs by SRB assay; conditions: M14, 48 h, read-out: GI
SN12C = test: Cytotoxicity against human SN12C cells assessed as growth inhibition at 10 uM after 48 hrs by SRB assay; conditions: read-out: GI
MDA-MB-435 = test: Cytotoxicity against human MDA-MB-435 cells assessed as growth inhibition at 10 uM after 48 hrs by SRB assay; conditions: MDA-MB-435, 48 h, read-out: GI
RXF 393 = test: Cytotoxicity against human RXF393 cells assessed as growth inhibition at 10 uM after 48 hrs by SRB assay; conditions: RXF 393, 48 h, read-out: GI
[2] = Cytotoxicity against human Hs578T cells assessed as growth inhibition at 10 uM after 48 hrs by SRB assay; conditions: Hs-578T, read-out: GI
A549 = test: Cytotoxicity against human A549 cells assessed as growth inhibition at 10 uM after 48 hrs by SRB assay; conditions: A549, 48 h, read-out: GI
OVCAR-3 = test: Cytotoxicity against human OVCAR3 cells assessed as growth inhibition at 10 uM after 48 hrs by SRB assay; conditions: OVCAR-3, 48 h, read-out: GI
SK-MEL-2 = test: Cytotoxicity against human SK-MEL-2 cells assessed as growth inhibition at 10 uM after 48 hrs by SRB assay; conditions: SK-MEL-2, 48 h, read-out: GI
U-251 = test: Cytotoxicity against human U251 cells assessed as growth inhibition at 10 uM after 48 hrs by SRB assay; conditions: U-251, 48 h, read-out: GI
SF-268 = test: Cytotoxicity against human SF268 cells assessed as growth inhibition at 10 uM after 48 hrs by SRB assay; conditions: SF-268, 48 h, read-out: GI
DU-145 = test: Cytotoxicity against human DU145 cells assessed as growth inhibition at 10 uM after 48 hrs by SRB assay; conditions: DU-145, 48 h, read-out: GI
NCI-H460 = test: Cytotoxicity against human NCI-H460 cells assessed as growth inhibition at 10 uM after 48 hrs by SRB assay; conditions: NCI-H460, 48 h, read-out: GI
SNB-75 = test: Cytotoxicity against human SNB75 cells assessed as growth inhibition at 10 uM after 48 hrs by SRB assay; conditions: SNB-75, 48 h, read-out: GI
IGROV-1 = test: Cytotoxicity against human IGROV1 cells assessed as growth inhibition at 10 uM after 48 hrs by SRB assay; conditions: IGROV-1, 48 h, read-out: GI
LOX IMVI = test: Cytotoxicity against human LOXIMVI cells assessed as growth inhibition at 10 uM after 48 hrs by SRB assay; conditions: read-out: GI
ACHN = test: Cytotoxicity against human ACHN cells assessed as growth inhibition at 10 uM after 48 hrs by SRB assay; conditions: read-out: GI
MOLT-4 = test: Cytotoxicity against human MOLT4 cells assessed as growth inhibition at 10 uM after 48 hrs by SRB assay; conditions: MOLT-4, 48 h, read-out: GI

## C=CCn1c(C)nc2ccc(Nc3nc(Nc4ccc5nc(C)n(CC=C)c5c4)c4ccccc4n3)cc21
SNB-19
  inhibition of growth at 10 µM: 50%
[1]
  inhibition of growth at 10 µM: 70%

## C=CCn1c(C)nc2ccc(Nc3nc(Nc4ccc(F)cc4)nc4ccccc34)cc21
SF-295
  inhibition of growth at 10 µM: 50%
M14
  inhibition of growth at 10 µM: 50%
SN12C
  inhibition of growth at 10 µM: 30%
MDA-MB-435
  inhibition of growth at 10 µM: 40%
RXF 393
  inhibition of growth at 10 µM: 30%
[2]
  inhibition of growth at 10 µM: 40%
A549
  inhibition of growth at 10 µM: 40%
OVCAR-3
  inhibition of growth at 10 µM: 40%
SK-MEL-2
  inhibition of growth at 10 µM: 40%
U-251
  inhibition of growth at 10 µM: 40%
SF-268
  inhibition of growth at 10 µM: 30%
DU-145
  inhibition of growth at 10 µM: 30%
NCI-H460
  inhibition of growth at 10 µM: 30%
SNB-75
  inhibition of growth at 10 µM: 40%
IGROV-1
  inhibition of growth at 10 µM: 40%
LOX IMVI
  inhibition of growth at 10 µM: 50%
ACHN
  inhibition of growth at 10 µM: 30%

## C=CCn1c(C)nc2cc(Nc3nc(NCCO)nc4ccccc34)ccc21
MOLT-4
  inhibition of growth at 10 µM: 40%
